# Measurements from US20210244791A1, “APPLICATION OF PEDF-DERIVED SHORT PEPTIDES IN TENDON HEALING” (BRIM Biotechnology, Inc., priority 2018, published 2021).
# How the values were obtained:
# injured Achilles tendon = assay: Rat model of Achilles tendon injury, histology (H&E) and histopathological score; assay type: in vivo; conditions: 1 week postoperative
# Text: Representative micrographs of the histopathological analysis by H&E staining. H&E-stained sections in higher magnification show uninjured tendon tissue with a relative scarcity of cells among the collagen fibers.
# (A) Representative H&E-stained longitudinal sections in higher magnification show the nuclei morphologies in uninjured tendon tissue and injured tendon treated with vehicle/alginate and 29-mer/alginate for 1 week. (B) Histopathological scores. Total scores were determining by fiber structure, fiber arrangement, rounding of the nuclei, resident cell density and inflammation (infiltration of inflammatory cells, neovascularization and fatty deposits). Data are reported as mean±SE. *P<0.0005 versus vehicle/alginate-treated tendon; ^#P<0.05 versus 29-mer/alginate-treated tendon.
# (§1) To investigate the effects of the 29-mer peptide on tendon healing, a rat model of Achilles tendon injury was established as reported by Orhan et al. (The effect of extracorporeal shock waves on a rat model of injury to tendon Achilles. A histological and biomechanical study. J. Bone Joint Surg. Br. 2004;.86(4):.613-618). Adult 10-week-old male Sprague-Dawley rats (initial body weight=312±11 g) were anesthetized by an intraperitoneal injection of xylazine (10 mg/kg). Then, the left tendo Achilles injury was created by full-thickness insertion of an 18-G needle through tendo Achilles 1 cm proximal to the calcaneum attachment site. This created a horizontal wound that was flanked by intact tendon tissue to prevent the retraction of severed ends. The skin incision was closed after the wound was irrigated with sterile saline. Treatments were applied to area around the tendon lesion by subcutaneous injection with 150 μl of alginate gel mixed with 100 μM 29-mer or DMSO vehicle (six rats per experimental condition).
# The tendon and surrounding soft tissue were dissected. Specimens were fixed in a 4% paraformaldehyde (PFA) solution and then were embedded in paraffin blocks. Sections (5 μm in thickness) were longitudinally cut and stained with hematoxylin and eosin (H&E) or used for immunohistochemical examination. 36 sections per tendon were carefully prepared so as to include the most severely degenerated area. Images were captured using a Nikon Eclipse 80i microscope (Nikon Corporation, Tokyo, Japan) equipped with a Leica DC 500 camera (Leica Microsystems, Wetzlar, Germany). Four sections of each sample containing injured tendon tissues were selected and evaluated by two blinded observers to assess the tendon morphology according to a modified semi-quantitative grading score from 0 to 3 proposed by Chen et al. (Tendon derived stem cells promote platelet-rich plasma healing in collagenase-induced rat Achilles tendinopathy. Cell Physiol. Biochem., 2014; 34(6): 2153-68). The scores analyzed the fiber structure (0-3), fiber arrangement (0-3), rounding of the nuclei (0-3), resident cell density (0-3), and inflammation (0-3; infiltration of inflammatory cells, neovascularization and fatty deposits). According to this grading system, a perfectly normal tendon obtained a score of 0, whereas a score of 15 was assigned to maximally abnormal tendons.
# To investigate the therapeutic effect of the 29-mer peptide on injured tendon, a rat model of Achilles tendon injury was established by full-thickness insertion of an 18-G needle through the tendon Achilles. We delivered the 29-mer in a 150 μl alginate gel, which releases 90% loaded 29-mer in 5 days as described in a previous protocol (Ho et al., PEDF-derived peptide promotes skeletal muscle regeneration through its mitogenic effect on muscle progenitor cells. Am J Physiol. Cell Physiol. 2015 Aug. 1; 309(3): C159-68).
# CD146-positive TSPC = assay: CD146 immunostaining of TSPC in injured Achilles tendon; assay type: in vivo, rat; conditions: 1 week after wounding; peptide/alginate gel; vehicle/alginate 38.3±7.8
# Procedure: (A) Representative CD146-stained longitudinal sections. (Original magnification×200). (B) The number of CD146-positive TSPC per 200×field of view on injured tendon sections. Data are reported as mean±SE. Total CD146^+ cells were evaluated from 6 sections/tendon specimen, with 3 rats in each group. *P<0.001 versus vehicle/alginate-treated tendon; #p <0.001 versus 29-mer/alginate-treated tendon.
# as §1, with “The skin incision was closed after the wound was irrigated with sterile saline. Treatments were applied to area around the tendon lesion by subcutaneous injection with 150 μl of alginate gel mixed with 100 μM 29-mer or DMSO vehicle (six rats per experimental condition).” left out
# CD146 is one of the TSPC markers. […] To test the mechanism of the 29-mer-induced tendon repair, CD146 immunostaining of TSPC located at injured tendon was measured, at 1 week after wounding. […]
# cyclin D1 = assay: Western blot analysis of cyclin D1 expression in TSPC; assay type: cell-based, rabbit; conditions: TSPC treated 24 h; compared with solvent-treated cells; normalized to β-actin
# Procedure: Primary rabbit TSPC were treated with 10NM 29-mer or its variants for 24 h. Representative blots (A) and densitometric analysis with the SD (B) from three independent experiments are shown. Cyclin D1 expression was normalized to ([…]. *P<0.01 vs. solvent-treated cells. ^#P<0.05 vs. 29-mer-treated cells.
# Achilles tendons from New Zealand White rabbits (6-8 months old, 3.0-4.0 kg) were used in this study. Achilles tendons were washed two times with sterile phosphate-buffered saline (PBS) containing 50 μg/ml gentamicin. The tendon and tendon sheath were cut into small pieces (1-2 mm^3). Each 100 mg of fragment was then digested in a solution containing 3 mg/ml of type I collagenase and 4 mg/ml of dispase in 1 ml balance salt solution (BSS; Alcone) at 37° C. for 4 hours. The digested tissues were washed three times with PBS and collected by centrifugation (800 g for 10 min). The digested tissues were placed in tissue-culture plates (Falcon Labware; NJ, USA) and resuspended in high-glucose DMEM supplemented with 10% FBS and 50 μg/ml gentamycin, and maintained at 37° C. with 5% CO2. After 5 days, the medium was changed to remove the loosened tissue residues. Subsequently, tendon cells were incubated with 10% FBS medium for 2 days, and then cultured with a basal medium (2% FBS, 1% ITSE, 300 μg/ml L-glutamine, 1% antibiotic-antimicotic solutions) for further 10 days. Culture medium was changed every 3 days. For passage, tendon cells were harvested with 0.25% trypsin/EDTA, cell counting by haemocytometer, approximately 5×10^3 cells were seeded in each well of a 96-well cell culture plate or 2×10^5 cells were seeded in each well of a 6-well cell culture plate for 24 h. These expanded tendon cells were then treated with 10 μM 29-mer or its variants in fresh basal medium for further 24 h and subjected to cell proliferation assay and western blot analysis, respectively.
# Cell lysis, SDS-PAGE, and antibodies used for immunoblotting were performed as described (Ho et al., 15-deoxy-Delta(12,14)-prostaglandin J2 induces vascular endothelial cell apoptosis through the sequential activation of MAPKS and p53. J Biol. Chem., 2008; 283(44): 30273-30288). The band intensity in immunoblot was evaluated with a Model GS-700 imaging densitometer (Bio-Rad Laboratories, Hercules, Calif.) and analyzed using Labworks 4.0 software.
# However, the 29-mer effect on cyclin D1 protein induction was almost abolished by alanine/glycine replacement at residue S93, A96, Q98, 1103, 1104 and R106, respectively (1.3±0.1, 1.5±0.3, 1.3±0.1, 0.9±0.1, 1.3±0.2, and 1.0±0.3). […] The data also imply that the PDSP at positions Ser93, Ala96, Gln98, Ile103, Ile104, and Arg106 are important for sustaining the PDSP effect on induction of TSPC proliferation.
substance,measurement,setting,value
"H105A: 29-mer variant with single alanine alteration at residue 105 (SLGAEQRTESIIARALYYDLISSPDIHGT; UniProt P36955 93-121, looked up, variant H105A)",total histopathological score,"injured Achilles tendon; peptide/alginate gel, 0 = normal tendon, 15 = maximally abnormal, vehicle/alginate 12.7±0.6",7.8±0.7
same,histological appearance of treated tendon (H&E staining),injured Achilles tendon; subcutaneous 150 μl alginate gel with 100 μM peptide,uniform appearance of well-aligned collagen fibers and no degenerative events similar to the 29-mer treatment
same,number of CD146-positive TSPC on injured tendon sections,CD146-positive TSPC,88.5±7.8 cells per 200× field
same,induction of the cyclin D1 protein,cyclin D1,2.7±0.3 fold
